Measured values as given in PMC7440915, “Discovery of surrogate agonists for visceral fat Treg cells that modulate metabolic indices in vivo” (eLife, 2020).
Where no end group is shown, it is not given here.

System: HFD-fed B6.CD45.1^+ mice
Experiment: Anti-TNFα and Fat1562 immunization in HFD-fed mice with vTreg53 Treg transfer
Type: in vivo, mouse
Settings: n ≥ 5, anti-TNFα 10 μg/g i.p. twice a week
Excerpt: Figure 7. Immunization with Fat1562 following vTreg53 Treg transfer ameliorates HFD-induced insulin resistance. (A–F) Metabolic indices of mice treated as in Figure 6A (n ≥ 7). (A) Body weight. (B) Insulin tolerance test (ITT). (C) Area over curve for ITT analysis. (D) Glucose tolerance test (GTT). (E) Area under curve for GTT analysis. (F) Plasma insulin levels after 6 hr of fasting. Data shown are representative of at least two independent experiments. (G) Scheme of the anti-TNFα experiment. (H) Number of total Treg cells in VAT (n ≥ 5). (I) Number of CD11c^hi inflammatory macrophages in VAT (n ≥ 5). (J) ITT (n ≥ 5). (K) Area over curve for ITT analysis (n ≥ 5). Data are mean ± SD. Figure 7—figure supplement 1. Absolute blood glucose levels. ITT analysis of mice transferred with vTreg53 TCR-tg Tregs and immunized with adjuvant/Fat1562 or adjuvant alone. Data shown are representative of at least two independent experiments (n ≥ 5). [drawing 7]
12-week-old B6.CD45.1^+ mice were fed with HFD and injected intraperitoneally with 10 μg/g body weight anti-TNFα (XT3.11, BioXCell) or isotype control IgG (HRPN, BioXCell) twice a week for 6 weeks, transferred with 0.4 million Treg cells from pooled Spl/LNs of 6-8wk-old male CD45.2^+ Tg^+ Foxp3-GFP^KI/y mice. […] One week after the IFA/peptides injection, ITT (0.75unit/kg insulin) was performed and the composition of different immunocytes were determined.
For GTT, mice were fasted for 15 hr overnight, weighed, and tested for fasting blood-glucose concentrations. […] Blood-glucose levels were measured before and 20, 40, 60, 90, and 120 min after glucose injection. […] Blood-glucose levels were measured before and 20, 40, 60, 90, and 120 min after insulin injection, and were normalized to the blood-glucose levels before insulin injection. The area under the curve (for GTT) or area over the curve (for ITT) were calculated using GraphPad Prism 7.0.

Sequence: TMYKNPRPMAATG [Fat1562]
- insulin sensitivity (ITT, 0.75unit/kg insulin): slightly improved insulin sensitivity
- number of CD11c^hi pro-inflammatory macrophages in VAT (VAT): reduced the number of CD11c^hi pro-inflammatory macrophages
- number of VAT-Treg cells (VAT): moderately increased the numbers of VAT-Treg cells
